Consider five molecules from patent US20080206311A1, “Sucrase Activity Inhibitor, Glucoamylase Activity Inhibitor and Food and Feed Containing the Same” (MITSUI SUGAR CO., LTD., priority 2005, published 2008).

Assay [1] relates to small-intestinal enzyme liquid. As to the kind of experiment: Decomposition of a saccharide alone (control solution) by small-intestinal enzyme liquid. It is filed as biochemical, rat. The conditions noted are these: 5% saccharide alone; for Liberated galactose concentration: Test Example 3. How it is done:
(§1) Palatinose (trade name: Palatinose IC, ex Shin Mitsui Sugar Co., Ltd.) (test sample) was used as a sample for investigating each enzyme activity inhibitory effect. Maltose and sucrose were used as substrates for maltase and sucrose, respectively. The test sample and the substrates were dissolved in 0.1 M phosphate buffer (pH 6.8) at the concentration shown in Table 1 below to prepare test solutions (Solutions 4 and 5). Also, the test sample or the substrates were dissolved in 0.1 M phosphate buffer (pH 6.8), respectively to at the concentration shown in Table 1 below to prepare control solutions (Solution 1 for the test sample and Solutions 2 and 3 for the substrates).
(§2) Two grams of rat small-intestinal acetone powder (ex Sigma Corporation) were dissolved in 20 ml of 0.1 M phosphate buffer (pH 6.8), left standing one day at 5° C., and subsequently subjected to centrifugal separation (8000 rpm×15 min.). The supernatant was filtered through a 0.8 μm membrane filter to obtain a small-intestinal enzyme liquid. This liquid contained a mixture of enzymes present in small intestine, such as sucrose, glucoamylase, maltase, and isomaltase.
(§3) Each 0.25 ml of the small-intestinal enzyme liquid was added to each 5 ml of Solutions 1 through 5 and placed in a water bath at 37° C. to allow them to react for 60 min. while shaken at 60 strokes/min. After the reaction, they were heated in a boiling water bath for 3 min. for inactivation of the enzymes.
(§4) The glucose concentration in each solution after the reaction was measured using the F-kit Glucose (ex Roche). A liberated glucose concentration (g/l) was calculated by subtracting the blank value (0.1 M phosphate buffer alone) and the concentration of glucose originally contained in the test sample from each glucose concentration measured.
The fructose concentration was measured using the F-kit Fructose (ex Roche). The liberated fructose concentration, g/l, was obtained by subtracting the blank value (0.1 M phosphate buffer alone) from the resultant fructose concentration.
(§5) The procedures in Example 1 were repeated with the exception that palatinit, palatinose or isomaltose was used as a test sample and lactose was used as a substrate. The test samples and the substrate were dissolved in 0.1 M phosphate buffer (pH 6.8) to attain the concentration shown in Table 5 to thereby prepare three test solutions. Besides, each of the test samples or the substrate was dissolved in 0.1 M phosphate buffer (pH 6.8) to attain the concentration shown in Table 5 to thereby prepare control solutions. Each 5 ml of the aforementioned test solutions and the control solutions was subjected to the enzymatic reaction according to the same procedures as in Example 1. The glucose concentration, the fructose concentration and the galactose concentration were measured. The galactose concentration was measured using F-kit Galactose (ex Roche). The liberated galactose concentration, g/l, was calculated by subtracting the blank value (0.1 M phosphate buffer alone) from the measured galactose concentration.

For the next assay, the target named is T1, sucrase (Rattus norvegicus, UniProt P23739).
T1 construct: This liquid contained a mixture of enzymes present in small intestine, such as sucrose, glucoamylase, maltase, and isomaltase; tissue Sigma Corporation; host or cells: rat small intestine (acetone powder), buffer extract, unpurified
In words: Sucrase activity inhibition with rat small-intestinal enzyme liquid, substrate sucrose. It is filed as biochemical. As for the experimental part:
as §1, §2, §3, §4
(§6) Next, each of the liberated glucose concentration was input in the following equation to obtain decomposition inhibition ratio for maltase and sucrose. In the present tests, the substrates and the inhibitors were decomposed by enzymes present in the small-intestinal enzyme liquid. However, the enzymes decomposing the substrates are different from the enzymes decomposing the inhibitors. The decomposition inhibition ratio was determined as a measure for the inhibitory effect. When the inhibitor was added, the glucose concentration was lower than that seen when the substrate alone was reacted. A higher decomposition inhibition ratio means a stronger inhibitory effect.
(§7) Decomposition inhibition ratio,%={(A+B)−(AB)}+(A+B)×100 [Equation 1]
(§8) wherein (A+B) indicates a sum of a liberated glucose concentration in the control solution containing the test sample alone after the reaction (A) and a liberated glucose concentration in the control solution containing the substrate alone after the reaction (B); and (AB) indicates a liberated glucose concentration in the test solution containing the test sample (A) and the substrate (B), after the reaction.
The procedures in Example 1 were repeated with the exception that the test solutions contained 5% of sucrose and 0.5%, 1.0%, 3.0% or 5.0% of palatinose to examine intensity of the sucrose activity inhibition. A control solution contained 5% of sucrose in 0.1 M phosphate buffer (pH 6.8).
The procedures in Example 1 were repeated with the exception that palatinit and palatinose were used as test samples and sucrose was used as a substrate. The test samples and the substrate were dissolved in 0.1 M phosphate buffer (pH 6.8) to attain the concentration shown in Table 3 to thereby prepare two test solutions. Besides, each one of the test samples or the substrate was dissolved in 0.1 M phosphate buffer (pH 6.8) to attain the concentration shown in Table 3 to thereby prepare control solutions. Each 5 ml of the aforementioned test solutions or the control solutions was subjected to the enzymatic reaction according to the same procedures as in Example 1. The glucose concentration and the fructose concentration were measured. […]

Another assay concerns the target T2, lactase (Rattus norvegicus, UniProt Q02401).
T2 construct: tissue Sigma Corporation; host or cells: rat small intestine (acetone powder), buffer extract, unpurified
T2 sequence (Q02401 868-1928): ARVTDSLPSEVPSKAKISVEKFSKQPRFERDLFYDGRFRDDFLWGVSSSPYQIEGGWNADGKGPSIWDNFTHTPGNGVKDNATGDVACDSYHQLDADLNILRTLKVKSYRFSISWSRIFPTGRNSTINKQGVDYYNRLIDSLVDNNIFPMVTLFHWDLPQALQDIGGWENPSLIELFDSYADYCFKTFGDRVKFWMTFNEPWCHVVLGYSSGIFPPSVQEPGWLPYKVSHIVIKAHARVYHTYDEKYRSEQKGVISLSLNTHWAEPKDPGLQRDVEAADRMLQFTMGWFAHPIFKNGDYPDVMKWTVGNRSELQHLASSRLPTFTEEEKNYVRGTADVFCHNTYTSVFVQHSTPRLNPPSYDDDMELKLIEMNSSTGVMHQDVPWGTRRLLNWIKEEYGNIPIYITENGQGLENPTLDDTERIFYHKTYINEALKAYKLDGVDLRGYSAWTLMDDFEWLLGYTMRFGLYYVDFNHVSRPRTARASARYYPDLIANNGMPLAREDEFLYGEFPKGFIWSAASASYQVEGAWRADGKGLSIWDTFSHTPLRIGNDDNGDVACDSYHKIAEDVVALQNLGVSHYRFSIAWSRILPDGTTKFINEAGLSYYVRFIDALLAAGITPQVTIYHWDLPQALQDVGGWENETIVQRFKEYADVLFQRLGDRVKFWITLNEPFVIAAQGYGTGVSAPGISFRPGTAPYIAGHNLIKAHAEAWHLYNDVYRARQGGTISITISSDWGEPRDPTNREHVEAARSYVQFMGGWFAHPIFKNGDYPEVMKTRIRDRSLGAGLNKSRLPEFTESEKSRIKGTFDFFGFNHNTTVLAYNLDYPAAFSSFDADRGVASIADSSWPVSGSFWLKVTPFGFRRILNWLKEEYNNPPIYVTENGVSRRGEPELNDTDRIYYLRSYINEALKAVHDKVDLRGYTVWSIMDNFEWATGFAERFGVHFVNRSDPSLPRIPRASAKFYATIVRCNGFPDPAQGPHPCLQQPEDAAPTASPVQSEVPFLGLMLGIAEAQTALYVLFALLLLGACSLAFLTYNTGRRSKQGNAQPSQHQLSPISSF
In words: Lactase activity inhibition with rat small-intestinal enzyme liquid, substrate lactose. It is filed as biochemical. The conditions noted are these: 5% lactose + 5% test sample. How it is done: as §2, §3, §4, §6, §7, §8, §5

For another assay, the system named is glucoamylase. In words: Glucoamylase activity inhibition with rat small-intestinal enzyme liquid, substrate soluble starch. It is filed as biochemical. Conditions: 5% soluble starch + 5% test sample. As for the experimental part:
as §2, §3, §4, §6, §7, §8
The procedures in Example 1 were repeated with the exception that palatinose and palatinit were used as a test sample and soluble starch was used as a substrate. The test samples and the substrate were dissolved in 0.1 M phosphate buffer (pH 6.8) to attain the concentration shown in Table 6 to thereby prepare two test solutions. Besides, each of the test samples or the substrate was dissolved in 0.1 M phosphate buffer (pH 6.8) to attain the concentration shown in Table 6 to thereby prepare control solutions. Each 5 ml of the aforementioned test solutions and the control solutions was subjected to the enzymatic reaction according to the same procedures as in Example 1 and the liberated glucose concentration and the decomposition inhibition ratio were measured.
The procedures in Example 1 were repeated with the exception that trehalulose was used as a test sample and soluble starch was used as a substrate. The test sample and the substrate were dissolved in 0.1 M phosphate buffer (pH 6.8) to attain the concentration shown in Table 9 to thereby prepare a test solution. Besides, the test sample or the substrate was dissolved in 0.1 M phosphate buffer (pH 6.8) to attain the concentration shown in Table 9 to thereby prepare control solutions. Each 5 ml of the aforementioned test solution and the control solutions was subjected to the enzymatic reaction according to the same procedures as in Example 1 and the liberated glucose concentration and the decomposition inhibition ratio were measured.
The procedures in Example 1 were repeated with the exception that trehalose was used as a test sample and soluble starch was used as a substrate. […]

Where [2] appears, read: 5% sucrose + 5% test sample, Example 3 / Test Example 2.
Where [3] appears, read: 5% sucrose + 5% test sample, Example 5 / Test Example 4.

T1 sequence (P23739 whole entry): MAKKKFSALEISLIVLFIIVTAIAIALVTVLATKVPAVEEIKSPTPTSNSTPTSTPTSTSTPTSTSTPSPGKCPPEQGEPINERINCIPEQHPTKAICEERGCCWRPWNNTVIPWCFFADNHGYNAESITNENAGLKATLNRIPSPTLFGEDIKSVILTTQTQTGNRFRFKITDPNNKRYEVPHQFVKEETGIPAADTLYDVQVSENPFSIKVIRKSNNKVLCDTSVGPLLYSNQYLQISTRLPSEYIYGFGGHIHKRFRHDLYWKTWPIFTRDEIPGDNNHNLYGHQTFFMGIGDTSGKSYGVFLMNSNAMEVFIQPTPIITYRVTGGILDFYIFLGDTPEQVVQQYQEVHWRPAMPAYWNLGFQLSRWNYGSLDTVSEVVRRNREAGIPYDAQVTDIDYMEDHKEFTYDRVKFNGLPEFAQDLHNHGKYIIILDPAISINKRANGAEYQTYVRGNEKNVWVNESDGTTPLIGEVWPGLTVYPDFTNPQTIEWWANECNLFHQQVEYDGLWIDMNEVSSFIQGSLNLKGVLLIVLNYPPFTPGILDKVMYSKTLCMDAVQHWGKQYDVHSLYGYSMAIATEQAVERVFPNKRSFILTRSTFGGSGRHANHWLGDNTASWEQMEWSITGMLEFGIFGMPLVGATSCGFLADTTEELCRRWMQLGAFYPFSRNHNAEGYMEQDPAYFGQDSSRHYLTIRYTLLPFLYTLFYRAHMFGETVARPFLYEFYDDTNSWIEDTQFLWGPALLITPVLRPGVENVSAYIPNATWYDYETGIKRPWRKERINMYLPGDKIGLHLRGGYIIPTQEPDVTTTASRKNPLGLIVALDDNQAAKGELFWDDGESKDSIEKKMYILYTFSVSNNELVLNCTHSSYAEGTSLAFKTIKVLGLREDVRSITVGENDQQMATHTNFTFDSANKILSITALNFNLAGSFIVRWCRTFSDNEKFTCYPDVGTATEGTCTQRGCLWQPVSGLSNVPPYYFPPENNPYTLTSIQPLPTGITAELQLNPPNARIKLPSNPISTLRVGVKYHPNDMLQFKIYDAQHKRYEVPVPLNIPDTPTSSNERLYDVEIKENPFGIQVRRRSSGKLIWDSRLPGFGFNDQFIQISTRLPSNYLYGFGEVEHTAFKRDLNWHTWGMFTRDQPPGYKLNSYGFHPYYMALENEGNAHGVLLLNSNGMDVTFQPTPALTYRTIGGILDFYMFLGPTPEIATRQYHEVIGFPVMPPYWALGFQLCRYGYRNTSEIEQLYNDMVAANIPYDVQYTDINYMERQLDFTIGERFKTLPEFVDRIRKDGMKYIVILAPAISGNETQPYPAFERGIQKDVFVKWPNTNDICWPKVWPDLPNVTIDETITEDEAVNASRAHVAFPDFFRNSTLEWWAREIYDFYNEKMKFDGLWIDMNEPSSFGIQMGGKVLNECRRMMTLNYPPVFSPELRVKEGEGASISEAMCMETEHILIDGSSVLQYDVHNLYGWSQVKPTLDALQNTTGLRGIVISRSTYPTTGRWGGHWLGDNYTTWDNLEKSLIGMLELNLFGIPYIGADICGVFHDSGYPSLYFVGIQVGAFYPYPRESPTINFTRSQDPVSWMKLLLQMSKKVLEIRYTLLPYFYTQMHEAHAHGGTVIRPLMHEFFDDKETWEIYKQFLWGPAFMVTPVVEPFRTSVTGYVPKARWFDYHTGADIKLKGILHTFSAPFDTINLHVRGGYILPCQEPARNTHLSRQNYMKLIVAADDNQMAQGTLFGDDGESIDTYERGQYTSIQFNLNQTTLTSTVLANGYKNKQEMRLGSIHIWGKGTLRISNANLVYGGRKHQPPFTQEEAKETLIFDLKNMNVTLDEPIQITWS

Regarding `OC[C@H]1O[C@H](O[C@H]2[C@H](O)[C@@H](O)[C@H](O)O[C@@H]2CO)[C@H](O)[C@@H](O)[C@@H]1O` [maltose], the Liberated glucose concentration in assay [1] (37° C., 60 min, pH 6.8, Example 1 / Test Example 1) came out at 4.956 ± 0.423 g/L.
In the case of `OC[C@H]1O[C@H](OC[C@H]2OC(O)[C@H](O)[C@@H](O)[C@@H]2O)[C@H](O)[C@@H](O)[C@@H]1O` (stereo partly drawn) [isomaltose, reference compound], on sucrase (5% sucrose + 5% isomaltose), the “Total concentration of liberated monosaccharides (glucose + fructose)” value was determined as 2.88 g/L. On sucrase (5% sucrose + 5% test sample), the “Sucrase activity inhibitory effect (in words)” value is “has a sucrose activity inhibitory effect”. For the same molecule, at sucrase (setting [2]), the “Decomposition inhibition ratio, %, against sucrase” value was 31%; the Liberated fructose concentration was found to be 0.70 g/L; the Liberated glucose concentration stood at 2.18 g/L. On lactase, the “Decomposition inhibition ratio, %, against lactase” value is −1%; the “Lactase activity inhibitory effect (in words)” value was “no lactose inhibitory effect was appreciable”; the Liberated fructose concentration worked out at 0.00 g/L; the Liberated galactose concentration is 0.06 g/L. For the same molecule, the Liberated glucose concentration on lactase came to 2.41 g/L. For the same molecule, in assay [1] (Example 3 / Test Examples 2, 3), the Liberated fructose concentration was determined as 0.02 g/L and the Liberated glucose concentration amounted to 2.14 g/L. Moreover, the Liberated galactose concentration in assay [1] is 0.00 g/L.
`OC[C@H]1O[C@H](O[C@H]2O[C@H](CO)[C@@H](O)[C@H](O)[C@H]2O)[C@H](O)[C@@H](O)[C@@H]1O` [trehalose, reference compound]: the “Sucrase activity inhibitory effect (in words)” value at sucrase (5% sucrose + 5% test sample) is listed as “substantially no sucrose activity inhibitory effect”. In addition, the “Decomposition inhibition ratio, %, against sucrase” value on sucrase (setting [3]) was 49%. Besides, the Liberated glucose concentration on sucrase (setting [3]) was found to be 1.683 g/L; in assay [1] (Example 5 / Test Example 4, sucrase activity inhibition test), 1.656 g/L; in assay [1] (Example 6 / Test Example 5, glucoamylase activity inhibition test), 0.333 g/L; with glucoamylase (Example 6 / Test Example 5), 2.349 g/L. Moreover, the “Glucoamylase activity inhibitory effect (in words)” value with glucoamylase is “has a glucoamylase activity inhibitory effect, but the effect is very weak”. In the assay with glucoamylase (Example 6 / Test Example 5), the “Decomposition inhibition ratio, %, against glucoamylase” value amounted to 14%.
Take `OC[C@H]1O[C@@H](O[C@H]2[C@H](O)[C@@H](O)C(O)O[C@@H]2CO)[C@H](O)[C@@H](O)[C@H]1O` (stereo partly drawn) [lactose]: in assay [1] (Example 3 / Test Examples 2, 3), the Liberated fructose concentration worked out at 0.00 g/L and the Liberated glucose concentration was 0.23 g/L. In addition, the Liberated galactose concentration in assay [1] came to 0.16 g/L.
As for soluble starch, the results for the Liberated glucose concentration in assay [1] (Example 4) and in assay [1] (Example 6 / Test Example 5) were 4.657 g/L and 2.400 g/L, respectively.
